Assay results as given in US20040175773A1, “Screening method based on siah-numb interaction” (priority 2000, published 2004).
Where a SMILES comes first, the peptide text is derived from it. The star is where a group is joined. Cbz = O=C(OCc1ccccc1)*

Assays:
[1] = test system: Notch1 nuclear translocation in U937 cells; details: 10 mM EDTA in PBS at 37° C. for 30 min; labelled 30 min (T=30) after removing the EDTA
Procedure: A. Stable U937 transfectants which were expressing either the control vector (panels 1 to 3) or Siah-1 (panels 4 to 7) were analysed using a confocal microscope for the endogenous immunofluorescence of Notch1. The cells were labelled with an antibody which recognized the cytoplasmic portion of human Notch1, followed by an FITC-conjugated secondary antibody. The Notch immunofluorescence analysis is related either to low magnification (panels 1 and 4) or to high magnification (panels 2, 3, 5, 6 and 7). […] The labelling with propidium iodide was included in order to better visualize the nuclear labelling of Notch1 (panels 3, 6 and 7). […] The bar represents a length of 5 μm.
Cells were incubated in 10 mM EDTA containing PBS at 37° C. for 30 min, and then washed and labelled with anti-Notch1 (intracellular) antibodies either immediately (T=0) or 30 min (T=30) after removing the EDTA. The cells were counterlabelled with propidium iodide in order to visualize the nucleus.

[2] = test system: quantity of Numb protein in 293T cells; test: Western blot of Numb protein in transfected 293T cells with or without proteasome inhibitor; assay type: cell-based, human; details: 293T cells cotransfected with Numb, Siah-1 +/- Mdm2; 50 μM MG132 for 6 hours; anti-Numb Western blot, FIG. 2B lanes 6, 7 and 8
Procedure: FIG. 2: Analysis of the effect of the in vivo interaction between Siah and Numb on the levels at which the proteins are expressed. FIG. 2.A. 293T cells were cotransfected with an empty expression vector (column 1) or expressing Numb (column 2), Siah-1 (column 3), Numb and Siah-1 (column 4), Numb and Mdm2 (column 5), and Numb, Siah-1 and Mdm2 (column 6). 48 hours after transfection, a Western blot analysis was carried out using an anti-Numb antibody. A control was also performed using an anti-GFP (green fluorescent protein) antibody as a loading standard on the gel. FIG. 2.B. The Western blot was analysed as previously described in the absence or presence of an inhibitor of the ubiquitin proteasome (MG 132). Without MG 132, the quantity of Numb protein decreases in the presence of Siah-1, with or without Mdm2 (lanes 2, 3 and 4). […]
The cell lysates were separated by SDS-PAGE gel electrophoresis and transferred to a nitrocellulose membrane (Biorad), with this being followed by a Western blot analysis using the Numb polyclonal antibody (Weizmann Institute, Ref. 3465, or reference N80220 from Transduction Laboratories) and the anti-GFP monoclonal antibody (Boehringer, Ref. 1814460) in order to verify standardization of the quantities which were loaded onto the gel. […]

SMILES: O=C(O)CN(CCN(CC(=O)O)CC(=O)O)CC(=O)O [EDTA]
- nuclear translocation of Notch1 [1]: positive Notch1 labelling in the nucleus

SMILES: CC(C)C[C@@H](C=O)NC(=O)[C@H](CC(C)C)NC(=O)[C@H](CC(C)C)NC(=O)OCc1ccccc1 [MG 132] (Cbz-Leu-Leu-Leu-aldehyde)
- quantity of Numb protein in the presence of Siah-1, with or without Mdm2 [2]: remains constant
